# Counter-ions that a name gives are not always drawn.
# System: not given
# Experiment: not given
# Details: not given
row,SMILES,melting point [°C]
1,"CC1(C)[C@@H](Cn2cncn2)CC[C@@]1(C)NCC(=O)N1CCC[C@H]1C#N (as salt: methanesulfonate) [Example 9, (S)-1-(2-((1R,3S)-3-((1H-1,2,4-Triazol-1-yl)methyl)-1,2,2-trimethylcyclopentylamino)acetyl)pyrrolidine-2-carbonitrilemethanesulfonate]",150 to 155
2,"CC1(C)[C@@H](Cn2cnnn2)CC[C@@]1(C)NCC(=O)N1C[C@@H](F)C[C@H]1C#N (as salt: methanesulfonate) [Example 31, (2S,4S)-1-(2-((1R,3S)-3-((1H-Tetrazol-1-yl)methyl)-1,2,2-trimethylcyclopentylamino)acetyl)-4-fluoropyrrolidine-2-carbonitrile methanesulfonate]",210 to 214
3,"CC1(C)[C@@H](NCC(=O)N2CCC[C@H]2C#N)CC[C@@]1(C)c1nc(-c2ccc(F)cc2)no1 (as salt: methanesulfonate) [Example 66, (S)-1-(2-((1S,3R)-3-(3-(4-Fluorophenyl)-1,2,4-oxadiazol-5-yl)-2,2,3-trimethylcyclopentylamino)acetyl)pyrrolidine-2-carbonitrile methanesulfonate]",206 to 211
4,"CC1(C)[C@@H](Cn2cncn2)CC[C@@]1(C)NCC(=O)N1C[C@@H](F)C[C@H]1C#N [Example 1, (2S,4S)-1-(2-((1R,3S)-3-((1H-1,2,4-Triazol-1-yl)methyl)-1,2,2-trimethylcyclopentylamino)acetyl)-4-fluoropyrrolidine-2-carbonitrile]",186 to 188
5,"CC1(C)[C@@H](CS(=O)(=O)c2ccc(S(C)(=O)=O)cc2)CC[C@@]1(C)NCC(=O)N1C[C@H](F)C[C@H]1C#N [Example 43, (2S,4R)-4-Fluoro-1-(2-((1R,3S)-1,2,2-trimethyl-3-((4-(methylsulfonyl)phenylsulfonyl)methyl)cyclopentylamino)acetyl)pyrrolidine-2-carbonitrile]",163 to 166
6,"CN1C(=O)[C@]2(C)CC[C@](NCC(=O)N3CCC[C@H]3C#N)(C1=O)C2(C)C [Example 75, (S)-1-(2-((1R,5R)-3,5,8,8-Tetramethyl-2,4-dioxo-3-azabicyclo[3.2.1]octan-1-ylamino)acetyl)pyrrolidine-2-carbonitrile]",141 to 144
7,"CC1(C)[C@@]2(C)CC[C@]1(NCC(=O)N1CCC[C@H]1C#N)C(=O)OC2 [Example 79, (S)-1-(2-((1R,5R)-5,8,8-Trimethyl-2-oxo-3-oxabicyclo[3.2.1]octan-1-ylamino)acetyl)pyrrolidine-2-carbonitrile]",174 to 177

# Target: T1, human recombinant Dipeptidyl peptidase IV enzyme (hrDPP IV) (Homo sapiens, UniProt P27487)
# T1 construct: purchased R&D systems
# Experiment: DPP IV assay, cleavage of H-Gly-Pro-AMC by human recombinant DPP-IV enzyme
# Assay type: biochemical
# Details: not given
# Experimental: DPP IV activity was determined by the cleavage rate of 7-amino 4-methylcoumarin (AMC) from the substrate H-Gly-Pro-AMC. In brief, the assay was conducted by adding 3 ng of human recombinant Dipeptidyl peptidase IV enzyme (hrDPP IV, available commercially from R&D systems) in 70 μL of the assay buffer (25 mM HEPES, 140 mM NaCl and 1% BSA, pH 7.8) to a 96 well black flat bottom microtitre plate. Test compounds were added as 10 μL additions to all wells except blank and total activity wells. After incubation of test substance with enzyme for 60 minutes at room temperature, 10 μL of 100 μM substrate H-Gly-Pro-AMC was added. After mixing, the plate was left for 20 minutes at room temperature. Then the reaction was terminated by addition of 10 μL of 25% glacial acetic acid. Fluorescence was measured using Spectra Max Gemini XS (Molecular Devices, USA) at an excitation filter of 360 nm and emission filter of 460 nm.
# Test compounds dissolved in DMSO were diluted with assay buffer at different concentrations and tested in duplicates. Percentage inhibition was calculated with respect to total activity. IC50 value was calculated using Prism Software.
# T1 sequence (P27487 whole entry): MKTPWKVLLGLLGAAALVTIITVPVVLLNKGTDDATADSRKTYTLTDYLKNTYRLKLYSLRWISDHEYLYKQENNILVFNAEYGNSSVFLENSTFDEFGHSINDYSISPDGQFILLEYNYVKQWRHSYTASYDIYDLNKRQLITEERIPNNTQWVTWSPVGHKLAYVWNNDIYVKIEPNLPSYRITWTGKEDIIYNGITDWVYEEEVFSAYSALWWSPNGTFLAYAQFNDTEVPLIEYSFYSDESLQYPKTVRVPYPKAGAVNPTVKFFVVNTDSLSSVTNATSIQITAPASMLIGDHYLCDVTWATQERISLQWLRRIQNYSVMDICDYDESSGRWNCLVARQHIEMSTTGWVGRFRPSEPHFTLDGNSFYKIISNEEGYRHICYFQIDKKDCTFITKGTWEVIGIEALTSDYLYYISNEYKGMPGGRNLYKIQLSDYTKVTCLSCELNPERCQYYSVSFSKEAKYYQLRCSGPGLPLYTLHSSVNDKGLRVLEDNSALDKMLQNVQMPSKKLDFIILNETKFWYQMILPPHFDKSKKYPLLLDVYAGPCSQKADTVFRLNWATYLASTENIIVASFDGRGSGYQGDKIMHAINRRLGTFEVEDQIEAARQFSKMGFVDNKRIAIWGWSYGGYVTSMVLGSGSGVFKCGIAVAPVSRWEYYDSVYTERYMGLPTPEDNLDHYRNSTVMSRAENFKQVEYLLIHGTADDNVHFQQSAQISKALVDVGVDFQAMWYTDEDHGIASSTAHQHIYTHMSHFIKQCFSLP
row,SMILES,IC50 [nM]
1,"CC1(C)[C@@H](Cn2cncn2)CC[C@@]1(C)NCC(=O)N1C[C@@H](F)C[C@H]1C#N [Example 1, (2S,4S)-1-(2-((1R,3S)-3-((1H-1,2,4-Triazol-1-yl)methyl)-1,2,2-trimethylcyclopentylamino)acetyl)-4-fluoropyrrolidine-2-carbonitrile]",222 ± 56.8
2,"CC1(C)[C@H](Cn2cncn2)CC[C@]1(C)NCC(=O)N1CCC[C@H]1C#N [Example 6, (S)-1-(2-((1S,3R)-3-((1H-1,2,4-Triazol-1-yl)methyl)-1,2,2-trimethylcyclopentylamino)acetyl)pyrrolidine-2-carbonitrile]",123
3,"CC1(C)[C@H](Cn2cncn2)CC[C@]1(C)NCC(=O)N1CCC[C@H]1C#N [Example 7, (S)-1-(2-((1S,3R)-3-((1H-1,2,4-Triazol-1-yl)methyl)-1,2,2-trimethylcyclopentylamino)acetyl)pyrrolidine-2-carbonitrile methanesulfonate]",99.8
4,"CC1(C)[C@@H](Cn2cncn2)CC[C@@]1(C)NCC(=O)N1CCC[C@H]1C#N [Example 8, (S)-1-(2-((1R,3S)-3-((1H-1,2,4-Triazol-1-yl)methyl)-1,2,2-trimethyleyclopentylamino)acetyl)pyrrolidine-2-carbonitrile]",1170 ± 0.14
5,"CC1(C)[C@@H](Cn2cncn2)CC[C@@]1(C)NCC(=O)N1CCC[C@H]1C#N [Example 9, (S)-1-(2-((1R,3S)-3-((1H-1,2,4-Triazol-1-yl)methyl)-1,2,2-trimethylcyclopentylamino)acetyl)pyrrolidine-2-carbonitrilemethanesulfonate]",781 ± 91.6
6,"CC1(C)[C@@H](Cn2ccnn2)CC[C@@]1(C)NCC(=O)N1C[C@@H](F)C[C@H]1C#N [Example 11, (2S,4S)-1-(2-((1R,3S)-3-((1H-1,2,3-Triazol-1-yl)methyl)-1,2,2-trimethylcyclopentylamino)acetyl)-4-fluoropyrrolidine-2-carbonitrile]",232
7,"CC1(C)[C@H](Cn2ccnn2)CC[C@]1(C)NCC(=O)N1C[C@@H](F)C[C@H]1C#N [Example 13, (2S,4S)-1-(2-((1S,3R)-3-((1H-1,2,3-Triazol-1-yl)methyl)-1,2,2-trimethylcyclopentylamino)acetyl)-4-fluoropyrrolidine-2-carbonitrilemethane sulfonate]",27.8
8,"CC1(C)[C@@H](CNS(=O)(=O)c2ccc(F)cc2)CC[C@@]1(C)NCC(=O)N1C[C@@H](F)C[C@H]1C#N [Example 19, N-(((1S,3R)-3-(2-((2S,4S)-2-Cyano-4-fluoropyrrolidin-1-yl)-2-oxoethylamino)-2,2,3-trimethylcyclopentyl)methyl)-4-fluorobenzenesulfonamide]",304.8 ± 2.1
9,"CC1(C)[C@@H](CNc2ccc(C#N)cn2)CC[C@@]1(C)NCC(=O)N1C[C@@H](F)C[C@H]1C#N [Example 24, 6-(((1S,3R)-3-(2-((2S,4S)-2-Cyano-4-fluoropyrrolidin-1-yl)-2-oxoethylamino)-2,2,3-trimethylcyclopentyl)methylamino)nicotinonitrile]",134
10,"CC1(C)[C@H](CNc2ccc(C#N)cn2)CC[C@]1(C)NCC(=O)N1C[C@@H](F)C[C@H]1C#N [Example 25, 6-(((1R,3S)-3-(2-((2S,4S)-2-Cyano-4-fluoropyrrolidin-1-yl)-2-oxoethylamino)-2,2,3-trimethylcyclopentyl)methylamino)nicotinonitrile]",29.4
11,"CC1(C)[C@@H](Cn2cnnn2)CC[C@@]1(C)NCC(=O)N1C[C@@H](F)C[C@H]1C#N [Example 31, (2S,4S)-1-(2-((1R,3S)-3-((1H-Tetrazol-1-yl)methyl)-1,2,2-trimethylcyclopentylamino)acetyl)-4-fluoropyrrolidine-2-carbonitrile methanesulfonate]",264
12,"CC1(C)[C@@H](CN2CCOCC2)CC[C@@]1(C)NCC(=O)N1C[C@@H](F)C[C@H]1C#N [Example 33, (2S,4S)-4-Fluoro-1-(2-((1R,3S)-1,2,2-trimethyl-3-(morpholinomethyl)cyclopentylamino)acetyl)pyrrolidine-2-carbonitrile]",250

# Same assay, conditions: 300 nM compound concentration
row,SMILES,inhibition at 0.3 µM [%]
1,"CC1(C)[C@@H](C(=O)N2CCCCC2)CC[C@@]1(C)NCC(=O)N1C[C@@H](F)C[C@H]1C#N [Example 14, (2S,4S)-4-Fluoro-1-(2-((1R,3S)-1,2,2-trimethyl-3-(piperidine-1-carbonyl)cyclopentylamino)acetyl)pyrrolidine-2-carbonitrile]",73.2
2,"CC1(C)[C@@H](CNS(C)(=O)=O)CC[C@@]1(C)NCC(=O)N1C[C@@H](F)C[C@H]1C#N [Example 17, N-(((1S,3R)-3-(2-((2S,4S)-2-Cyano-4-fluoropyrrolidin-1-yl)-2-oxoethylamino)-2,2,3-trimethylcyclopentyl)methyl)methanesulfonamide]",46.6
3,"CC1(C)[C@H](CN2CCCCC2)CC[C@]1(C)NCC(=O)N1C[C@@H](F)C[C@H]1C#N [Example 40, (2S,4S)-4-Fluoro-1-(2-((1S,3R)-1,2,2-trimethyl-3-(piperidin-1-ylmethyl)cyclopentylamino)acetyl)pyrrolidine-2-carbonitrile]",84.7
4,"CC1(C)[C@@H](CN2CCC(O)CC2)CC[C@@]1(C)NCC(=O)N1C[C@@H](F)C[C@H]1C#N [Example 41, (2S,4S)-4-Fluoro-1-(2-((1R,3S)-3-((4-hydroxypiperidin-1-yl)methyl)1,2,2-trimethylcyclopentylamino)acetyl)pyrrolidine-2-carbonitrile]",26.1
5,"CC1(C)[C@@H](CC#N)CC[C@@]1(C)NCC(=O)N1C[C@@H](F)C[C@H]1C#N [Example 53, (2S,4S)-1-(2-((1R,3R)-3-(Cyanomethyl)-1,2,2-trimethylcyclopentylamino)acetyl)-4-fluoropyrrolidine-2-carbonitrile]",56.5
6,"CN1C[C@]2(C)CC[C@](NCC(=O)N3CCC[C@H]3C#N)(C1)C2(C)C [Example 78, (S)-1-(2-((1R,5R)-3,5,8,8-Tetramethyl-3-azabicyclo[3.2.1]octan-1-ylamino)acetyl)pyrrolidine-2-carbonitrile]",23.3
7,"CC1(C)[C@@]2(C)CC[C@]1(NCC(=O)N1CCC[C@H]1C#N)COC2 [Example 80, (S)-1-(2-((1R,5R)-5,8,8-Trimethyl-3-oxabicyclo[3.2.1]octan-1-ylamino)acetyl)pyrrolidine-2-carbonitrile]",2.28
8,"CC1(C)[C@@]2(C)CC[C@]1(NCC(=O)N1C[C@@H](F)C[C@H]1C#N)COC2 [Example 81, (2S,4S)-4-Fluoro-1-(2-((1R,5R)-5,8,8-trimethyl-3-oxabicyclo[3.2.1]octan-1-ylamino)acetyl)pyrrolidine-2-carbonitrile]",21.3
9,"CC1(C)[C@]2(C)CC[C@@]1(NCC(=O)N1C[C@@H](F)C[C@H]1C#N)COC2 [Example 82, (2S,4S)-4-Fluoro-1-(2-((1S,5S)-5,8,8-trimethyl-3-oxabicyclo[3.2.1]octan-1-ylamino)acetyl)pyrrolidine-2-carbonitrile]",22.4

# Source: patent publication US8466145B2, “Dipeptidyl peptidase IV inhibitors” (Orchid Chemicals & Pharmaceuticals Limited, priority 2009, dated 2013)
